In article PMC8564633, “SMAC/Diablo controls proliferation of cancer cells by regulating phosphatidylethanolamine synthesis” (Molecular Oncology, 2021) one finds IC50 data, which are given here for six compounds.

Non-standard residues stand in square brackets, D forms with d. Residues, ends and D or L forms follow the SMILES beside them. Dmt = Cc1cc(O)cc(C)c1C[C@H](N)C(=O)O; Orn = NCCC[C@H](N)C(=O)O

In the first assay the test system is A549 cells. The assay is classed as cell-based, human. The following applies: 24 h. As for the experimental part:
Cells were seeded in 96‐well cell culture plates (8000/well) and allowed to grow for 48 h. After washing with PBS, cells were fixed with 50% trichloroacetic acid and stained with SRB for 20 min. Excess SRB was removed, and cells were washed with 1% acetic acid. SRB extraction was done using 100 mM Tris‐base, and absorbance at 510 nm was determined using an Infinite M1000 plate reader (Tecan, Männedorf, Switzerland).
Fig. 7 PSD‐interacting peptides bind to PSD, inhibiting its activity, and when cell‐penetrating and mitochondria‐ or nucleus‐targeted, inhibit cell proliferation. […] (B) Inhibition of PSD activity by the 2F3 (●) or 1C11 (○) peptide. PSD activity was measured using the DSB‐3 method. (C‐E) Cell proliferation inhibition following incubation of A549 cells with the indicated mitochondria‐ or nucleus‐targeted peptides for 24 h in a serum‐free medium, and cell proliferation was assayed using the SRB method. Results are the means ± SEM (n = 3). (F) A549 cells were incubated for 90 min with 5 µM of the mitochondria‐ or nucleus‐targeted FITC‐labelled peptides, immunostained with anti‐SMAC antibodies and with DAPI and visualized by confocal microscope for subcellular localization. (a) and (b) present higher magnification, white arrows point to possible nuclear localization of the peptide, and blue arrows to its colocalization with mitochondria marker (n = 3). Scale bars represent 20, 10 µm as indicated.
Table S4. Effects of peptide identified as interacting with PSD or their interaction with SMAC/Diablo is prevented in the presence of PSD on A549 lung cancer cell growth A549 cells were seeded in 96-well plate (7000 cells/well). After 24 h cells were incubated without or with the indicated peptide concentration for 24 h in a serum-free medium. Then, cells were washed with PBS, and analyzed for cell growth using the SRB method. Results are the mean ± SD (n=3). Peptide sequence, its identification manner, based on interacting with PSD or their interaction with SMAC/Diablo is prevented in the presence of PSD are shown. In addition, the peptides are presented with the cell penetrating peptide targeting to the mitochondria or the nucleus. The results are presented as the concentration required for 50% inhibition (IC50).
No Peptide spot and Protein/Function Peptide and Cellular IC50 […]
ALSTSSPIPSVPQSQ transcriptional coactivator 2 Mitochondria (A) […]
AQPQTGSGAS truncated poly Q, transcriptional H-(D-Arg)–Dmt–Orn–Phe- 2F3 >100 Interacting with PSD coactivator for NOTCH proteins, Mitochondria promotes proliferative signaling R-{D-Arg}-RK- 2F3 28.9±5.2 during neurogenesis (Nucleus). Nucleus […]
PNQSSRAFQGTDHS transcriptional coactivator 2 Mitochondria
SDLAFDFLSQQ truncated poly Q, A transcriptional D-Arg–Dmt–Orn–Phe-2I8 66.8±4.7 Identified by PSD coactivator for NOTCH proteins, Mitochondria preventing SMAC promotes proliferative signaling R-{D-Arg}-RK-2I8 >100 interaction with it during neurogenesis (Nucleus). Nucleus […]
ALLTSGTSDPRARV protease promotes cell death either Mitochondria […]
TYGTPSLWARL by direct binding to IAPs proteins D-Arg–Dmt–Orn–Phe -1C11 89.3±5.49 Interacting with PSD leading to increased caspase Mitochondria activity or caspase-independent and serine protease activity-dependent R-{D-Arg}-RK- 1C11 66.5±3.9 mechanism. (Mitochondrion Nucleus intermembrane space). 1C11- R-{D-Arg}-RK 30.0±3.8 […]
ELYRMSTYSTFPAG Acts as an E3 ubiquitin-protein Mitochondria
VPVSERSLARA ligase, regulator of NF-kappa-B 1E14- D-Arg–Dmt–Orn–Phe >100 Identified by PSD signaling, apoptosis, cell Mitochondria preventing SMAC proliferation, cell invasion and R-{D-Arg}-RK-1E14 >100 interaction with it metastasis, modulates inflammatory Nucleus signaling, (Cytosol, nucleus and […]
Compound `CSCC[C@H](NC(=O)[C@H](CCCNC(=N)N)NC(=O)[C@H](Cc1ccc(O)cc1)NC(=O)[C@H](CC(C)C)NC(=O)[C@H](CCC(=O)O)NC(=O)[C@H](Cc1ccccc1)NC(=O)[C@H](CCCN)NC(=O)[C@H](Cc1c(C)cc(O)cc1C)NC(=O)[C@H](N)CCCNC(=N)N)C(=O)N[C@@H](CO)C(=O)N[C@H](C(=O)N[C@@H](Cc1ccc(O)cc1)C(=O)N[C@@H](CO)C(=O)N[C@H](C(=O)N[C@@H](Cc1ccccc1)C(=O)N1CCC[C@H]1C(=O)N[C@@H](C)C(=O)NCC(=O)N[C@H](C(=O)N1CCC[C@H]1C(=O)N[C@H](C(=O)N[C@@H](CO)C(=O)N[C@@H](CCC(=O)O)C(=O)N[C@@H](CCCNC(=N)N)C(=O)N[C@@H](CO)C(=O)N[C@@H](CC(C)C)C(=O)N[C@@H](C)C(=O)N[C@@H](CCCNC(=N)N)C(=O)N[C@@H](C)C(=O)O)C(C)C)C(C)C)[C@@H](C)O)[C@@H](C)O` [D-Arg–Dmt–Orn–Phe-1E14] (H-[dR][Dmt][Orn]FELYRMSTYSTFPAGVPVSERSLARA-OH; N-terminus and C-terminus assumed) had an IC50 of more than 100 µM.

For the compound `CC[C@H](C)[C@H](NC(=O)[C@@H]1CCCN1C(=O)[C@H](CO)NC(=O)[C@H](CO)NC(=O)[C@@H](NC(=O)[C@H](CO)NC(=O)[C@H](CC(C)C)NC(=O)[C@H](C)NC(=O)[C@H](Cc1ccccc1)NC(=O)[C@H](CCCN)NC(=O)[C@H](Cc1c(C)cc(O)cc1C)NC(=O)[C@H](N)CCCNC(=N)N)[C@@H](C)O)C(=O)N1CCC[C@H]1C(=O)N[C@@H](CO)C(=O)N[C@H](C(=O)N1CCC[C@H]1C(=O)N[C@@H](CCC(N)=O)C(=O)N[C@@H](CO)C(=O)N[C@@H](CCC(N)=O)C(=O)N[C@@H](C)C(=O)N[C@@H](CCC(N)=O)C(=O)N1CCC[C@H]1C(=O)N[C@@H](CCC(N)=O)C(=O)N[C@H](C(=O)NCC(=O)N[C@@H](CO)C(=O)NCC(=O)N[C@@H](C)C(=O)N[C@@H](CO)C(=O)O)[C@@H](C)O)C(C)C` [H-(D-Arg)–Dmt–Orn–Phe- 2F3] (H-[dR][Dmt][Orn]FALSTSSPIPSVPQSQAQPQTGSGAS-OH; C-terminus assumed), the IC50 was more than 100 µM. `CSCC[C@H](NC(=O)[C@H](CCCNC(=N)N)NC(=O)[C@H](Cc1ccc(O)cc1)NC(=O)[C@H](CC(C)C)NC(=O)[C@H](CCC(=O)O)NC(=O)[C@H](CCCCN)NC(=O)[C@H](CCCNC(=N)N)NC(=O)[C@@H](CCCNC(=N)N)NC(=O)[C@@H](N)CCCNC(=N)N)C(=O)N[C@@H](CO)C(=O)N[C@H](C(=O)N[C@@H](Cc1ccc(O)cc1)C(=O)N[C@@H](CO)C(=O)N[C@H](C(=O)N[C@@H](Cc1ccccc1)C(=O)N1CCC[C@H]1C(=O)N[C@@H](C)C(=O)NCC(=O)N[C@H](C(=O)N1CCC[C@H]1C(=O)N[C@H](C(=O)N[C@@H](CO)C(=O)N[C@@H](CCC(=O)O)C(=O)N[C@@H](CCCNC(=N)N)C(=O)N[C@@H](CO)C(=O)N[C@@H](CC(C)C)C(=O)N[C@@H](C)C(=O)N[C@@H](CCCNC(=N)N)C(=O)N[C@@H](C)C(=O)O)C(C)C)C(C)C)[C@@H](C)O)[C@@H](C)O` [R-{D-Arg}-RK-1E14] (H-R[dR]RKELYRMSTYSTFPAGVPVSERSLARA-OH; N-terminus and C-terminus assumed) registered an IC50 of more than 100 µM. Regarding `CC(C)C[C@H](NC(=O)[C@H](CC(=O)O)NC(=O)[C@H](CO)NC(=O)[C@H](CO)NC(=O)[C@H](Cc1c[nH]cn1)NC(=O)[C@H](CC(=O)O)NC(=O)[C@@H](NC(=O)CNC(=O)[C@H](CCC(N)=O)NC(=O)[C@H](Cc1ccccc1)NC(=O)[C@H](C)NC(=O)[C@H](CCCNC(=N)N)NC(=O)[C@H](CO)NC(=O)[C@H](CO)NC(=O)[C@H](CCC(N)=O)NC(=O)[C@H](CC(N)=O)NC(=O)[C@@H]1CCCN1C(=O)[C@H](CCCCN)NC(=O)[C@H](CCCNC(=N)N)NC(=O)[C@@H](CCCNC(=N)N)NC(=O)[C@@H](N)CCCNC(=N)N)[C@@H](C)O)C(=O)N[C@@H](C)C(=O)N[C@@H](Cc1ccccc1)C(=O)N[C@@H](CC(=O)O)C(=O)N[C@@H](Cc1ccccc1)C(=O)N[C@@H](CC(C)C)C(=O)N[C@@H](CO)C(=O)N[C@@H](CCC(N)=O)C(=O)N[C@@H](CCC(N)=O)C(=O)O` [R-{D-Arg}-RK-2I8] (H-R[dR]RKPNQSSRAFQGTDHSSDLAFDFLSQQ-OH; N-terminus and C-terminus assumed), the IC50 is more than 100 µM. Same read-out and setting: as for `CC(C)C[C@H](NC(=O)[C@H](CCCNC(=N)N)NC(=O)[C@H](C)NC(=O)[C@H](Cc1c[nH]c2ccccc12)NC(=O)[C@H](CC(C)C)NC(=O)[C@H](CO)NC(=O)[C@@H]1CCCN1C(=O)[C@@H](NC(=O)CNC(=O)[C@H](Cc1ccc(O)cc1)NC(=O)[C@@H](NC(=O)[C@@H](NC(=O)[C@H](CCCNC(=N)N)NC(=O)[C@H](C)NC(=O)[C@H](CCCNC(=N)N)NC(=O)[C@@H]1CCCN1C(=O)[C@H](CC(=O)O)NC(=O)[C@H](CO)NC(=O)[C@@H](NC(=O)CNC(=O)[C@H](CO)NC(=O)[C@@H](NC(=O)[C@H](CC(C)C)NC(=O)[C@H](CC(C)C)NC(=O)[C@H](C)NC(=O)[C@H](CCCCN)NC(=O)[C@H](CCCNC(=N)N)NC(=O)[C@@H](CCCNC(=N)N)NC(=O)[C@@H](N)CCCNC(=N)N)[C@@H](C)O)[C@@H](C)O)C(C)C)[C@@H](C)O)[C@@H](C)O)C(=O)O` [R-{D-Arg}-RK- 1C11] (H-R[dR]RKALLTSGTSDPRARVTYGTPSLWARL-OH; N-terminus and C-terminus assumed), the figure is 66.5 ± 3.9 µM; as for `CC[C@H](C)[C@H](NC(=O)[C@@H]1CCCN1C(=O)[C@H](CO)NC(=O)[C@H](CO)NC(=O)[C@@H](NC(=O)[C@H](CO)NC(=O)[C@H](CC(C)C)NC(=O)[C@H](C)NC(=O)[C@H](CCCCN)NC(=O)[C@H](CCCNC(=N)N)NC(=O)[C@@H](CCCNC(=N)N)NC(=O)[C@@H](N)CCCNC(=N)N)[C@@H](C)O)C(=O)N1CCC[C@H]1C(=O)N[C@@H](CO)C(=O)N[C@H](C(=O)N1CCC[C@H]1C(=O)N[C@@H](CCC(N)=O)C(=O)N[C@@H](CO)C(=O)N[C@@H](CCC(N)=O)C(=O)N[C@@H](C)C(=O)N[C@@H](CCC(N)=O)C(=O)N1CCC[C@H]1C(=O)N[C@@H](CCC(N)=O)C(=O)N[C@H](C(=O)NCC(=O)N[C@@H](CO)C(=O)NCC(=O)N[C@@H](C)C(=O)N[C@@H](CO)C(=O)O)[C@@H](C)O)C(C)C` [R-{D-Arg}-RK- 2F3] (H-R[dR]RKALSTSSPIPSVPQSQAQPQTGSGAS-OH; N-terminus and C-terminus assumed), 28.9 ± 5.2 µM.

Still in this assay, the particulars now being: A549 cells, 24 h, serum‐free medium, SRB; read-out: IC50, cell proliferation inhibition.
As for `CC[C@H](C)[C@H](NC(=O)[C@@H]1CCCN1C(=O)[C@H](CO)NC(=O)[C@H](CO)NC(=O)[C@@H](NC(=O)[C@H](CO)NC(=O)[C@H](CC(C)C)NC(=O)[C@H](C)NC(=O)[C@H](CCCCN)NC(=O)[C@H](CCCNC(=N)N)NC(=O)[C@@H](CCCNC(=N)N)NC(=O)[C@@H](N)CCCNC(=N)N)[C@@H](C)O)C(=O)N1CCC[C@H]1C(=O)N[C@@H](CO)C(=O)N[C@H](C(=O)N1CCC[C@H]1C(=O)N[C@@H](CCC(N)=O)C(=O)N[C@@H](CO)C(=O)N[C@@H](CCC(N)=O)C(=O)N[C@@H](C)C(=O)N[C@@H](CCC(N)=O)C(=O)N1CCC[C@H]1C(=O)N[C@@H](CCC(N)=O)C(=O)N[C@H](C(=O)NCC(=O)N[C@@H](CO)C(=O)NCC(=O)N[C@@H](C)C(=O)N[C@@H](CO)C(=O)O)[C@@H](C)O)C(C)C` [R-{D-Arg}-RK- 2F3] (H-R[dR]RKALSTSSPIPSVPQSQAQPQTGSGAS-OH; N-terminus and C-terminus assumed), the IC50 was found to be 19.6 µM.
